Data: PMC8658909, “Organometallic small molecule kinase inhibitors – direct incorporation of Re and ^99mTc into Opaganib®” (Chemical Communications (Cambridge, England), 2021)

Biological target: T1, sphingosine kinase-2 (SK2) (Homo sapiens, UniProt Q9NRA0)
T1 construct: gene SPHK2
T1 sequence (Q9NRA0 1-654): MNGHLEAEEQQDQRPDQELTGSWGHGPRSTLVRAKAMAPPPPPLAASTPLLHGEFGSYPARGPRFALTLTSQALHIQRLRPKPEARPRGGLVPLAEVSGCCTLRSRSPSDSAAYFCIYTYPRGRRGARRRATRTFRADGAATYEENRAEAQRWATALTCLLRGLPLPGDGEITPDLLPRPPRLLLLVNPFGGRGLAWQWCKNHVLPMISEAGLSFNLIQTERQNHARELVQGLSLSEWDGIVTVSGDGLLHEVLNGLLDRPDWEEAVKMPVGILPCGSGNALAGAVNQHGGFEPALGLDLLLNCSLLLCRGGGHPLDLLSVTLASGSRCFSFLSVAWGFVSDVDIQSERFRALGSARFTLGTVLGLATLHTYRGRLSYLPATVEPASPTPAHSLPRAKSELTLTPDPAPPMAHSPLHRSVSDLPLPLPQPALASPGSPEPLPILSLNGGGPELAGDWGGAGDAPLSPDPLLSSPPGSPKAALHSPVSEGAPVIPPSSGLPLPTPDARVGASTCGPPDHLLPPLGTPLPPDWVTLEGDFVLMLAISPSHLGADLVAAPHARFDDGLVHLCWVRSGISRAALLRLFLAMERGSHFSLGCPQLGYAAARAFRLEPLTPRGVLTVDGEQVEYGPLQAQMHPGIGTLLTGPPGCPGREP
Assay: SK2 kinase inhibition IC50 (details in ESI)
Assay type: biochemical

IC50: 15.8 ± 3 µM
SMILES: O=C(NCc1ccncc1)C12CC3CC(C1)CC(c1ccc(Cl)cc1)(C3)C2 [Opaganib®, Opaganib]
